# Reference: article PMC12616682, “Identification of a Highly Cooperative PROTAC Degrader Targeting GTP-Loaded KRAS(On) Alleles” (Journal of the American Chemical Society, 2025)
# “Also recorded” adds a separate entry of the source. Like-named read-outs stand apart in the source and are kept apart here.
# How the values were obtained:
# [1] = target: T1, KRAS^G12D in GP5d cells (Homo sapiens, UniProt P01116, G12D); experiment: Endogenous KRAS degradation by Western blot in GP5d cells; format: cell-based
# T1 construct: comparison of the degradative effect on endogenous KRAS; host or cells: GP5d
# [2] = target: KRAS^WT-GDP (Homo sapiens, UniProt P01116); experiment: Binary SPR KRAS^WT-GDP (protocol from Lito et al.); conditions: read-out: KRAS^WT-GDP KD
# [3] = test system: Calu-6 cells; experiment: CellTiter-Glo anti-proliferation, Calu-6; format: cell-based, human; conditions: Calu-6 (Q61K)
# [4] = target: T2, KRAS^Q61L in SW948 cells (Homo sapiens, UniProt P01116, Q61L); experiment: Endogenous KRAS degradation by Western blot in SW948 cells; format: cell-based
# T2 construct: host or cells: SW948
# [5] = target: T3, HiBiT-KRAS^G12R in Cal-62 cells (Homo sapiens, UniProt P01116, G12R); experiment: HiBiT degradation assay, HiBiT-KRAS^G12R Cal-62 cells; format: cell-based; conditions: Cal-62 (HiBitG12R)
# T3 construct: generated a HiBiT-KRAS^G12R Cal-62 knock-in cell line using the CRISPR Cas9 technology; endogenous in cells; host or cells: Cal-62 HiBiT KRAS G12R (in-house CRISPR knock-in)
# Protocol: (Gibco) with 10% FBS in a humidiﬁed cell incubator at 37 °C and 5% CO2.
# Plasmids pSpCas9 BB-2A-GFP (PX458) containing gRNA, Cas9 and GFP sequences and […] plasmid containing ssDNA donor template were purchased from Genscript. Cal-62 cells were plated at 5x10^5 cells in a 6-well plate and left to adhere overnight. The next day, the transfection plasmids (0.5 µg of each gRNA plasmid and 0.5 µg of donor template) were diluted in Opti-MEM, combined with Lipofectamine solution in Opti-mem according to the manufacturer’s protocol and incubated for 20 min at RT. The mixture was added to the cells and incubated for 24 h. The next day the media was exchanged, and the cells were left to incubate for another 24 h. GFP positive cells were single-cell sorted into 96-well plates using ﬂuorescence-activated cell sorting (FACS) at the Flow Cytometry and Cell Sorting Facility (University of Dundee). Sorted cells were left to grow in conditioned media supplemented with 20% FBS for 3 weeks. Formed colonies were tested for the expression of HiBiT KRAS using the Nano-Glo® HiBiT Lytic system (Promega). The positive clones were additionally tested for insertion of the HiBiT tag by western blotting for KRAS (mouse anti-KRAS, LsBio) and HiBiT (mouse anti-HiBiT, Promega) and the insert was further conﬁrmed by Sanger sequencing. […]
# gRNA1: 5’ […] 3’, gRNA2: 5’ […] 3’, gRNA 3: 5’ […]
# template DNA: 5’ caatccagctt tatttgacac tcattctctc aactctcatc tgattcttac tgttaatatt tatccaagag aactactgcc atgatgcttt aaaagttttt ctgtagctgt tgcatattga cttctaacac ttagaggtgg gggtccacta ggaaaactgt aacaataaga gtggagatag ctgtcagcaa cttttgtgag ggtgtgctac agggtgtaga gcactgtgaa gtctctacat gagtgaagtc atgatatgat cctttgagag cctttagccg ccgcagaaca gcagtctggc tatttagata gaacaacttg attttaagat aaaagaactg tctatgtagc atttatgcat ttttcttaag cgtcgatgga ggagtttgta aatgaagtac agttcattac gatacacgtc tgcagtcaac tggaattttc atgattgaat tttgtaaggt attttgaaat aatttttcat ataaaggtga gtttgtatta aaaggtactg gtggagtatt tgatagtgta ttaaccttat gtgtgacatg ttctaatata gtcacatttt cattattttt attataaggc ctgctgaaa […]
# atg[…]act gaGtaCaaGctCgtAgtagttggag ctCgtggc gta ggc aag agt gcc ttA acAatCcaActaattcagaatcat tttgtggacg aatatgatcc aacaatagag gtaaatcttg ttttaatatg catattactg gtgcaggacc attctttgat acagataaag gtttctctga ccattttcat gagtacttat tacaagataa ttatgctgaa agttaagtta tctgaaatgt accttgggtt tcaagttata tgtaaccatt aatatgggaa ctttactttc cttgggagta tgtcagggtc catgatgttc actctctgtg cattttgatt ggaagtgtat ttcagagttt cgtgagaggg tagaaatttg tatcctatct ggacctaaaa gacaatcttt ttattgtaac ttttattttt atgggtttct tggtattgtg acatcatatg taaaggttag atttaattgt actagtgaaa tataattgtt tgatggttga tttttttaaa cttcatcagc agtattttcc tatcttcttc tcaacattag agaacctaca actaccggat aaattttaca aaatgaatta tttgcctaag gtgtggttta tataaaggta ctattaccaa ctttaccttt gctttgttgt catttttaaa tttactcaag gaaatactag gatttaaaaa aaaattcctt 3’
# Degradation via Detection of Split Nanoluciferase (HiBiT)
# To assess PROTAC-mediated degradation of HiBiT-tagged KRAS constructs, cells were seeded at […]
# further incubated at 37 °C for 4 and 24 h. Following incubation, 20 µL per well of Promega Nano-Glo® HiBiT lytic detection reagent mix (Promega Nano-Glo® HiBiT Lytic Detection System […]
# plotted as percent of DMSO control.
# [6] = target: T3, HiBiT-KRAS^G12R in Cal-62 cells; experiment: Kinetic degradation (live mode), Cal-62 HiBiT KRAS^G12R cells; format: cell-based; conditions: Cal62-HiBit (G12R)
# [7] = target: T4, HiBiT-KRAS^G12D in GP5d cells (Homo sapiens, UniProt P01116, G12D); experiment: HiBiT degradation assay, HiBiT-KRAS^G12D GP5d cells; format: cell-based; conditions: Gp5D (HiBit-G12D)
# T4 construct: host or cells: GP5d HiBiT KRAS G12D
# [8] = target: T5, KRAS^Q61K in Calu-6 cells (Homo sapiens, UniProt P01116, Q61K); experiment: Endogenous KRAS degradation by Western blot in Calu-6 cells; format: cell-based; conditions: Calu-6 (Q61K)
# T5 construct: host or cells: Calu-6
# [9] = target: T6, KRAS^G12R in Cal-62 cells (Homo sapiens, UniProt P01116, G12R); experiment: Endogenous KRAS degradation by Western blot in Cal-62 cells; format: cell-based; conditions: Cal-62 (G12R)
# T6 construct: Potent degradation of endogenous KRAS^G12R was achieved by ACBI4 in the Cal-62 cell line; host or cells: Cal-62
# [10] = test system: Cal-62 cells; experiment: CellTiter-Glo anti-proliferation, Cal-62; format: cell-based, human; conditions: Cal-62 (G12R)
# [11] = target: T7, KRAS^G12R in KP-2 cells (Homo sapiens, UniProt P01116, G12R); experiment: Endogenous KRAS degradation by Western blot in KP-2 cells; format: cell-based; conditions: KP-2 (G12R)
# T7 construct: host or cells: KP-2
# [12] = test system: A375 cells; experiment: CellTiter-Glo anti-proliferation, A375 (KRAS independent); format: cell-based, human
# [13] = target: NRAS in Cal-62 cells (Homo sapiens, UniProt P01111); experiment: Western blot of NRAS levels in Cal-62 cells
# [14] = test system: HiBiT-tagged KRAS mutants in GP5d cells; experiment: Degradation of retrovirally transduced HiBiT-tagged KRAS mutants in GP5d cells; format: cell-based, human; conditions: 18 h
# [15] = test system: Cal-62 cells; experiment: Whole cell proteomics MS analysis of Cal-62 cells; format: cell-based, human; conditions: 1 µM, 6 h, FDR<0.05
# [16] = target: HRAS in Cal-62 cells (Homo sapiens, UniProt P01112); experiment: Western blot of HRAS levels in Cal-62 cells
# [17] = Homo sapiens, 72 h, read-out: CTG 72h Ic50
# HRAS in Cal-62 cells, sequence (P01112 whole entry): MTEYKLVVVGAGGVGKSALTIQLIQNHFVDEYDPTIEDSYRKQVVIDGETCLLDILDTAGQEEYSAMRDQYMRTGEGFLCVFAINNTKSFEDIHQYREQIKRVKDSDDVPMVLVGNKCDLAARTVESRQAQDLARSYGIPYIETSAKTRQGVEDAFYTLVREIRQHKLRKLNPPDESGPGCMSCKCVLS
# NRAS in Cal-62 cells, sequence (P01111 whole entry): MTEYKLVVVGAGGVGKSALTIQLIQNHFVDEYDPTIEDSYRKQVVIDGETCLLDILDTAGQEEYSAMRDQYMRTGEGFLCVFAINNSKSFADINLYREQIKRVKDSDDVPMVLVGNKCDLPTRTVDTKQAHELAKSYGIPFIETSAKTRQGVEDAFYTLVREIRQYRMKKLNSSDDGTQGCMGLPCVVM
smiles,measurement,setting,value
"Cc1ncsc1-c1ccc([C@H](CO)NC(=O)[C@@H]2C[C@@H](O)CN2C(=O)[C@H](C(C)C)n2cc(OCCCCN3CCCN(c4nccc(-c5noc([C@@]6(C)CCCc7sc(N)c(C#N)c76)n5)n4)[C@@H](C)C3)nn2)cc1 [ACBI3, reference compound]",Dmax,"[1]; 4 h, read-out: DMax 4h",98.3%
same,DC50,"[1]; 4 h, read-out: Dc50 4h",7.3 nM
same,Dmax,"[1]; 18 h, read-out: DMax 18h",100%
same,Kd,[2],4.9 ± 2.6 nM
same,IC50,[3]; [17],338 nM
same,DMax 4h,[4]; 4 h,unstable
same,Dc50 4h,[4]; 4 h,unstable
same,Dmax,"[4]; 18 h, read-out: DMax 18h",45%
same,DC50,"[4]; 18 h, read-out: Dc50 18h",10000 nM
same,DMax 4h,[5]; 4 h,unstable
same,Dc50 4h,[5]; 4 h,unstable
same,Dmax,"[5]; 24 h, read-out: DMax 24h",31%
same,DC50,"[5]; 24 h, read-out: Dc50 24h",114 nM
same,1/K (Tau),[6],unstable
same,Plateau (degradation rate),[6],unstable
same,Plateu/ Tau,[6],unstable
same,Dmax,"[7]; 4 h, read-out: DMax 4h",79%
same,DC50,"[7]; 4 h, read-out: Dc50 4h",9.9 nM
same,Dmax,"[7]; 24 h, read-out: DMax 24h",94%
same,DC50,"[7]; 24 h, read-out: Dc50 24h",2.5 nM
same,Dc50 4h,[8]; 4 h,unstable
same,Dmax,"[8]; 4 h, read-out: DMax 4h",11%
same,DMax 18h,[8]; 18 h,unstable
same,Dc50 18h,[8]; 18 h,unstable
same,DMax 4h,[9]; 4 h,unstable
same,Dc50 4h,[9]; 4 h,unstable
same,Dmax,"[9]; 18 h, read-out: DMax 18h",9%
same,DC50,"[9]; 18 h, read-out: Dc50 18h",282 nM
same,CTG 72h Ic50,[10],unstable
same,DMax 4h,[11]; 4 h,unstable
same,Dc50 4h,[11]; 4 h,unstable
same,Dmax,"[11]; 18 h, read-out: DMax 18h",50%
same,DC50,"[11]; 18 h, read-out: Dc50 18h",961 nM
CC(C)C(C(=O)N1CC(O)CC1C(=O)NCc1ccc2cnn(C)c2c1)n1nnc2c1CCC(CCCN1CCCN(c3nccc(-c4noc(C5(C)CCCc6sc(N)c(C#N)c65)n4)n3)C(C)C1)C2 (stereo not drawn) [ACBI4],Dmax,"[1]; 4 h, read-out: DMax 4h",96.5%
same,DC50,"[1]; 4 h, read-out: Dc50 4h",7 nM
same,Dmax,"[1]; 18 h, read-out: DMax 18h",99%
same,DC50,"[1]; 18 h, read-out: Dc50 18h",7 nM
same,IC50,"[12]; Homo sapiens, A-375, 144 h, A375 (KRAS WT; KRAS independent), read-out: CTG 144h Ic50",> 3000 nM
same,antiproliferative effect (in words),[12]; KRAS-independent A375 cell line,No antiproliferation; also recorded: No antiproliferative effect was observed
same,CTG 72h Ic50,[3],unstable
same,NRAS degradation,[13],degradation of NRAS only at very high concentrations
same,degradation of HiBiT-tagged KRAS mutant panel (in words),[14],induce the degradation of all KRAS alleles
same,Dmax,"[4]; 4 h, read-out: DMax 4h",58%
same,DC50,"[4]; 4 h, read-out: Dc50 4h",300 nM
same,Dmax,"[4]; 18 h, read-out: DMax 18h",65%
same,DC50,"[4]; 18 h, read-out: Dc50 18h",1000 nM
same,Dmax,"[5]; 4 h, read-out: DMax 4h",80%
same,DC50,"[5]; 4 h, read-out: Dc50 4h",80 nM
same,Dmax,"[5]; 24 h, read-out: DMax 24h",87%
same,DC50,"[5]; 24 h, read-out: Dc50 24h",205 nM
same,1/K (Tau),[6],0.689 µM
same,Plateau (degradation rate),[6],0.2774 min⁻¹
same,Plateu/ Tau,[6],6708 M⁻¹ s⁻¹
same,Log2 Difference CDKN1C,[15]; ACBI4/DMSO,1.09
same,Log2 Difference FOSL1,[15]; ACBI4/DMSO,-0.93
same,Log2 Difference G0S2,[15]; ACBI4/DMSO,-1.35
same,Log2 Difference KRAS,[15]; ACBI4/DMSO,-0.94
same,Log2 Difference NRAS,[15]; ACBI4/DMSO,-1.86
same,Log2 Difference RHOB,[15]; ACBI4/DMSO,2.12
same,Log2 Difference CDKN1C,[15]; ACBI4/Neg Ctr,1.24
same,Log2 Difference FOSL1,[15]; ACBI4/Neg Ctr,-0.7
same,Log2 Difference G0S2,[15]; ACBI4/Neg Ctr,-1.11
same,Log2 Difference KRAS,[15]; ACBI4/Neg Ctr,-0.79
same,Log2 Difference NRAS,[15]; ACBI4/Neg Ctr,-1.48
same,Log2 Difference PLAU,[15]; ACBI4/Neg Ctr,-0.73
same,Log2 Difference RHOB,[15]; ACBI4/Neg Ctr,2.07
same,Log2 Difference TSPYL4,[15]; ACBI4/Neg Ctr,0.96
same,Dmax,"[7]; 4 h, read-out: DMax 4h",84%
same,DC50,"[7]; 4 h, read-out: Dc50 4h",9 nM
same,Dmax,"[7]; 24 h, read-out: DMax 24h",93%
same,DC50,"[7]; 24 h, read-out: Dc50 24h",2 nM
same,Dmax,"[8]; 4 h, read-out: DMax 4h",34%
same,DC50,"[8]; 4 h, read-out: Dc50 4h",274 nM
same,Dmax,"[8]; 18 h, read-out: DMax 18h",68%
same,DC50,"[8]; 18 h, read-out: Dc50 18h",157 nM
same,Dmax,"[16]; CAL-62, read-out: HRAS Dmax",72%
same,window of HRAS degradation over KRAS degradation,"[16]; Cal-62, DC50 637 nM vs 382 nM",ca. 2 fold
same,DC50,"[16]; read-out: HRAS DC50, Cal-62 cells, 4 h, Western blot",637 nM
same,Dmax,"[9]; 4 h, read-out: DMax 4h",88%
same,DC50,"[9]; 4 h, read-out: Dc50 4h",382 nM
same,Dmax,"[9]; 18 h, read-out: DMax 18h",93%
same,DC50,"[9]; 18 h, read-out: Dc50 18h",162 nM
same,IC50,[10]; [17],174 nM
same,Dmax,"[11]; 4 h, read-out: DMax 4h",91%
same,DC50,"[11]; 4 h, read-out: Dc50 4h",316 nM
same,Dmax,"[11]; 18 h, read-out: DMax 18h",82%
same,DC50,"[11]; 18 h, read-out: Dc50 18h",151 nM
